pIC50: −log10 of the molar value. Activity calls are given as the source filed them. The rule behind the calls is not given here.
Experiments:
EKVX = assay: Antiproliferative activity against human EKVX cells assessed as inhibition of cell viability by MTT assay
KM12 = assay: Antiproliferative activity against human KM12 cells assessed as inhibition of cell viability by MTT assay
[1] = biological target: T1, Serine/threonine-protein kinase Chk1 (Homo sapiens, UniProt O14757); assay: Inhibition of human recombinant CHK1 using CHKtide as substrate in presence of ATP by ADP-Glo luminescence kinase assay
T1 sequence (O14757 whole entry): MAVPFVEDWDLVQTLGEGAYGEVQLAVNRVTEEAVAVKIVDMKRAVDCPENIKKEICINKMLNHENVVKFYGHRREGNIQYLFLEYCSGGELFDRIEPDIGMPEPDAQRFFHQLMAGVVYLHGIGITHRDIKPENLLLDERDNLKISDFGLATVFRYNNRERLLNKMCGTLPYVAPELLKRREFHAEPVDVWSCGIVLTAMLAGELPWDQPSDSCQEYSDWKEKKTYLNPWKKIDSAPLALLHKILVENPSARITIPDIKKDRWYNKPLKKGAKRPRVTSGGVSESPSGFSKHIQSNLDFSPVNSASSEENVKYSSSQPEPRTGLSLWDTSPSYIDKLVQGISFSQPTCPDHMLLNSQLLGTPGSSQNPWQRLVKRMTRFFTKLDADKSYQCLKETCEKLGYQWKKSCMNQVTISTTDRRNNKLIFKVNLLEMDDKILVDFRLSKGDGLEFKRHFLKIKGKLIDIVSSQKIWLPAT

[2] = biological target: Cyclin-dependent kinase 2 (Homo sapiens, UniProt P24941); assay: Inhibition of human CDK2 by ELISA analysis
[3] = biological target: Casein kinase II subunit alpha (Homo sapiens, UniProt P68400); assay: Inhibition of human recombinant full-length C-terminal His tagged-CK2 alpha expressed in Escherichia coli using tetra-methylbenzidine as substrate in presence of ATP by ELISA analysis
Activin receptor type-1 = biological target: T2, Activin receptor type-1 (Homo sapiens, UniProt Q04771); assay: Inhibition of human recombinant GST-tagged-ALK2 (147 to 509 residues) using Casein as substrate in presence of ATP by ADP-Glo luminescence assay
T2 sequence (Q04771 whole entry): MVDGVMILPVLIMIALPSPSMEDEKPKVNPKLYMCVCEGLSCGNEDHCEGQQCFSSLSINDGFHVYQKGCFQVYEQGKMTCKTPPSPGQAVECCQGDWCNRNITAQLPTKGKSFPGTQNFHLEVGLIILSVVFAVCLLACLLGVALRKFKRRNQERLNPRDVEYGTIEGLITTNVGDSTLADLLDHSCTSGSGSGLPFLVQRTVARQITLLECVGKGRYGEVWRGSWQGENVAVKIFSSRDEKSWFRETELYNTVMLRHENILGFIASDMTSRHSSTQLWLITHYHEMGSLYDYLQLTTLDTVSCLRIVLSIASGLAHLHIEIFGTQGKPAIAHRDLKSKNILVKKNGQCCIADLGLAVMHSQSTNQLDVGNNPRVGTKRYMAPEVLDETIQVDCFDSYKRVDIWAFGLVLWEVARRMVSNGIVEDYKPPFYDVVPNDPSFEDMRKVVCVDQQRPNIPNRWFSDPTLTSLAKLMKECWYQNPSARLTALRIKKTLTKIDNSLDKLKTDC

[4] = biological target: Epidermal growth factor receptor (Homo sapiens, UniProt P00533); assay: Inhibition of human recombinant GST tagged-EGFR using Poly (Glu,Tyr) 4:1 as substrate in presence of ATP by ADP-Glo luminescence kinase assay
[5] = biological target: Proto-oncogene tyrosine-protein kinase ROS (Homo sapiens, UniProt P08922); assay: Inhibition of human recombinant GST tagged-ROS1 using IRF-1Rtide as substrate in presence of ATP by ADP-Glo luminescence kinase assay
[6] = biological target: Proto-oncogene tyrosine-protein kinase receptor Ret (Homo sapiens, UniProt P07949); assay: Inhibition of human recombinant GST tagged-RET using IRF-1Rtide as substrate in presence of ATP by ADP-Glo luminescence kinase assay
[7] = biological target: Mast/stem cell growth factor receptor Kit (Homo sapiens, UniProt P10721); assay: Inhibition of human recombinant N-terminal GST tagged-c-KIT (544 to end residues) expressed in baculovirus infected Sf9 cells using Poly (Glu,Tyr) 4:1 as substrate in presence of ATP by ADP-Glo luminescence kinase assay
[8] = Cytotoxicity against human FHCs assessed as inhibition of cell viability by MTT assay; type: toxicity, cell-based; conditions: FHC cells
[9] = Cytotoxicity against human MCF-10A cells assessed as inhibition of cell viability by MTT assay; type: toxicity, cell-based
[10] = biological target: T3, Activin receptor type-1 (Homo sapiens) (UniProt Q04771); assay: Inhibition of ALK2 in human EKVX cells by Western blotting analysis; type: cell-based
T3 sequence (whole entry): T2 sequence (Q04771 whole entry)

[11] = Inhibition of human recombinant FLT3 using myelin basic protein as substrate in presence of ATP by ADP-Glo luminescence kinase assay
[12] = biological target: Serine/threonine-protein kinase pim-1 (Homo sapiens, UniProt P11309); assay: Inhibition of human recombinant full-length PIM1 expressed in baculovirus infected Sf9 cells using S6K as substrate in presence of ATP by ADP-Glo luminescence kinase assay
Chain of Serine/threonine-protein kinase pim-1 (P11309 whole entry): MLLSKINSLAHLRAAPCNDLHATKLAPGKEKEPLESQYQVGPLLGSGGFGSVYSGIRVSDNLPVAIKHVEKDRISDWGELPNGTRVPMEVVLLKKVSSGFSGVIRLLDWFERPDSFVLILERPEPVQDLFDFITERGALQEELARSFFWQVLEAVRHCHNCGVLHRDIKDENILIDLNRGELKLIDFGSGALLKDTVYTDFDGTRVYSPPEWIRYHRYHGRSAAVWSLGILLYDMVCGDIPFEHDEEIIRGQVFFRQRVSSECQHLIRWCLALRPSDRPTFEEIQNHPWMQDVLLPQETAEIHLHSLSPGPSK

Chain of Casein kinase II subunit alpha (P68400 whole entry, the tested form may be a part): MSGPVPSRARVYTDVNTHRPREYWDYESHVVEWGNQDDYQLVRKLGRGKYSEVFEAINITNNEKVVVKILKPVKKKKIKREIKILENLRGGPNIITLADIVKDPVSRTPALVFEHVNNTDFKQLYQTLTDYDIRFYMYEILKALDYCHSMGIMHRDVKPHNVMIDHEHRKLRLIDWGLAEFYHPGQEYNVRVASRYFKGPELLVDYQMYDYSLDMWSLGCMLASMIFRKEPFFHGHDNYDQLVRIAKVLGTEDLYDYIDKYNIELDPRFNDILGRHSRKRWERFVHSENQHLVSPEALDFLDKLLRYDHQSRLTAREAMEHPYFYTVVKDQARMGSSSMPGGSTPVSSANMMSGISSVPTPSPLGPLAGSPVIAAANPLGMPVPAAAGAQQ
Chain of Proto-oncogene tyrosine-protein kinase ROS (P08922 whole entry): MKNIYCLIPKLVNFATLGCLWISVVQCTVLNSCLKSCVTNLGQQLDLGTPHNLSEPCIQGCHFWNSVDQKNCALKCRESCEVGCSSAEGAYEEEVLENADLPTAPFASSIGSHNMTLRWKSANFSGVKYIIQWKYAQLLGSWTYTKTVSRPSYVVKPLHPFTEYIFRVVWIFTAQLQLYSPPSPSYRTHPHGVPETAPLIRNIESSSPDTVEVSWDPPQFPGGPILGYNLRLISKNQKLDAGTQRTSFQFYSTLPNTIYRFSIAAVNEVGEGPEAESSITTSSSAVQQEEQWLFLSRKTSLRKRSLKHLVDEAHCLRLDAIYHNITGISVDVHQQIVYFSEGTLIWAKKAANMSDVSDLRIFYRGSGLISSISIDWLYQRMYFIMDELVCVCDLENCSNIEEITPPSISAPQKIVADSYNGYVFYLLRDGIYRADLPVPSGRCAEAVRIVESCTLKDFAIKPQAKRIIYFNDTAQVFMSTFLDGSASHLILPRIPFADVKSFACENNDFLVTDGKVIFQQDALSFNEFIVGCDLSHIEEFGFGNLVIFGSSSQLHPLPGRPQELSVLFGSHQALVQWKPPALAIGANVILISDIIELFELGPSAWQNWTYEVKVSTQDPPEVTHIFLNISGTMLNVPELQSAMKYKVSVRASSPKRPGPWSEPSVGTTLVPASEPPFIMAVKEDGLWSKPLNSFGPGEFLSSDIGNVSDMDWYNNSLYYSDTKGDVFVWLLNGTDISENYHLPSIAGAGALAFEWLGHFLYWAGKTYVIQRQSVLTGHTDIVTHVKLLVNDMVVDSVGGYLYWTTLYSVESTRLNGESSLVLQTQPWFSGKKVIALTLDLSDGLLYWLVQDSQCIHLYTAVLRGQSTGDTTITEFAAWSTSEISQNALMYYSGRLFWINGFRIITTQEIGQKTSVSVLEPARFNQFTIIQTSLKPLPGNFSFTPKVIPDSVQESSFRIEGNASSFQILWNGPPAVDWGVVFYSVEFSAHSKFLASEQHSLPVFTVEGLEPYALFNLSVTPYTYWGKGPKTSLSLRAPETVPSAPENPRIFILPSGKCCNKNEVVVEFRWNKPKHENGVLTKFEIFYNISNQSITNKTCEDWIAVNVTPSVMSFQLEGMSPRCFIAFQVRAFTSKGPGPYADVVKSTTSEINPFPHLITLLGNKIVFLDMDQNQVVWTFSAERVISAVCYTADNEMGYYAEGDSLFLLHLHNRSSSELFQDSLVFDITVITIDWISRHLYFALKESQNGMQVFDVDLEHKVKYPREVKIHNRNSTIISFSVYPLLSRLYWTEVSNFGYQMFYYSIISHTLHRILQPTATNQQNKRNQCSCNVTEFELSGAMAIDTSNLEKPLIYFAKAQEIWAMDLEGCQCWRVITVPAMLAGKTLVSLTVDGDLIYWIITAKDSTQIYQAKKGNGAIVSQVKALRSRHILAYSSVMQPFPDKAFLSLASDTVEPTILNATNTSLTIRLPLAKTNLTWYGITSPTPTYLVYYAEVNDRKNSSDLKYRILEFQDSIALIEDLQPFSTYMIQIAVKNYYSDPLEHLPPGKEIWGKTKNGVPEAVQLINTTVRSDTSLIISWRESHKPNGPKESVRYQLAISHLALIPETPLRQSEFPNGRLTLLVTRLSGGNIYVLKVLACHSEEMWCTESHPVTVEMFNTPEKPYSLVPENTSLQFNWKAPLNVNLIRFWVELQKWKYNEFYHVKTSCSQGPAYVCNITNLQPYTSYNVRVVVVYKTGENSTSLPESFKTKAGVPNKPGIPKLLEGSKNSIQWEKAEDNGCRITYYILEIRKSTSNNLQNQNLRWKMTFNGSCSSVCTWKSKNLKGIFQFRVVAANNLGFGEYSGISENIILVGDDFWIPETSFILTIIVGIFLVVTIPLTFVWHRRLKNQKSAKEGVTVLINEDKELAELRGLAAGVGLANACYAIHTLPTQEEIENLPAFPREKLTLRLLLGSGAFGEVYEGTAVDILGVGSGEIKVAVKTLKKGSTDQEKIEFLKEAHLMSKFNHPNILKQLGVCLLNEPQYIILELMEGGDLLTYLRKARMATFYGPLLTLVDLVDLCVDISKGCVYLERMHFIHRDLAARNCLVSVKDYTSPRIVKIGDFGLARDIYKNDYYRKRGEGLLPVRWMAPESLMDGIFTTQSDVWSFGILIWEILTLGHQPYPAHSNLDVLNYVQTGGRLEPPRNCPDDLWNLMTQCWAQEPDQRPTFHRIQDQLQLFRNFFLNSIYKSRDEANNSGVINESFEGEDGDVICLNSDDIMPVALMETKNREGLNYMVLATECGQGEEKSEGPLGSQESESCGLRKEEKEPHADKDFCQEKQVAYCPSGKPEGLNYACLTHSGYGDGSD
Chain of Epidermal growth factor receptor (P00533 whole entry): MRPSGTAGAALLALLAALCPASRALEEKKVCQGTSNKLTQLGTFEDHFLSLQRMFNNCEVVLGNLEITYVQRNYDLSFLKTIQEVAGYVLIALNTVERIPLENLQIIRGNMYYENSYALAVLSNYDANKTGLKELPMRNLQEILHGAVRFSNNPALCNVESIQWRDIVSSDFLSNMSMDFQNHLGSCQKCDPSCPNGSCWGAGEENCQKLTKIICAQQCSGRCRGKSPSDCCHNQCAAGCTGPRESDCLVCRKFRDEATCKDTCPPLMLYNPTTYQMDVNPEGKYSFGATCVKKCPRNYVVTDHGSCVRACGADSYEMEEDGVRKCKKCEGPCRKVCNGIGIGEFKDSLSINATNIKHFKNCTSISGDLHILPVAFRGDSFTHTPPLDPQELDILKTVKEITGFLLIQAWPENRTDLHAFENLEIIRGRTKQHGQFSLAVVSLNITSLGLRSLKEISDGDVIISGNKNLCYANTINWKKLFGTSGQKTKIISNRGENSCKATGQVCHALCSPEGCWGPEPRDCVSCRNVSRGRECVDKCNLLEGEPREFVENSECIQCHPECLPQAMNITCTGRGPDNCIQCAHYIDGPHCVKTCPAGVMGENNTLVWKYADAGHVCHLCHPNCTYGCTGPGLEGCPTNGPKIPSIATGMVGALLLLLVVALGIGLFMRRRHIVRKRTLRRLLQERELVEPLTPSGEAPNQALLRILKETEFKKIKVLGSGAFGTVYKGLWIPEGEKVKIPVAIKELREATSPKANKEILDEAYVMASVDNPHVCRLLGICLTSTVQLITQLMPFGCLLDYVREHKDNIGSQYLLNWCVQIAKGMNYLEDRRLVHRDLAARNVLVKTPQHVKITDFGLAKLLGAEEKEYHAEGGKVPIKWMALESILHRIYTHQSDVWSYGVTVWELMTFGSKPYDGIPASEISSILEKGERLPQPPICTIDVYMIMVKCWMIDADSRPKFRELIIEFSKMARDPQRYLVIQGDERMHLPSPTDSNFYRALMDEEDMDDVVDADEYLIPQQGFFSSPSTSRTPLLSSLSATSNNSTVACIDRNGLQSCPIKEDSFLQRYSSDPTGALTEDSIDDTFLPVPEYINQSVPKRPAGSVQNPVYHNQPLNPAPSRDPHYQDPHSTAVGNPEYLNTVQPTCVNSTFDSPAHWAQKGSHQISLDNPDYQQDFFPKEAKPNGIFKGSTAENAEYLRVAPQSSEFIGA

Compound	pIC50 [1]	pIC50 [2]	pIC50 [3]	pIC50 (Activin receptor type-1)	other results
O=C(Nc1cnn2ccc(N3CCC[C@@H]3c3cc(F)ccc3F)nc12)N1CC[C@H](O)C1 [LAROTRECTINIB]					pIC50 (EKVX): 5.13; pIC50 (KM12): 5.33
Cc1nn2c(-c3ccccc3)ccnc2c1/C(N)=N/O	7.07	5.76	7.14		
Cc1nn2c(-c3ccc(Br)cc3)ccnc2c1C(N)=O				6.45	
COc1ccc(-c2ccnc3c(-c4noc(C)n4)c(C)nn23)cc1	6.81	6.15	7.03	7.43	pIC50 [4]: 6.97; pIC50 [5]: 6.12; pIC50 [6]: 6.27; pIC50 [7]: 7.23
COc1cccc2c1C(=O)c1c(O)c3c(c(O)c1C2=O)C[C@@](O)(C(=O)CO)C[C@@H]3O[C@H]1C[C@H](N)[C@H](O)[C@H](C)O1 [DOXORUBICIN]					pIC50 [8]: 4.75; pIC50 [9]: 4.87
C[C@H]1Oc2cc(cnc2N)-c2c(nn(C)c2C#N)CN(C)C(=O)c2ccc(F)cc21 [LORLATINIB]				7.54	inhibition [10]: Active
CCc1nc(C(N)=O)c(Nc2ccc(N3CCC(N4CCN(C)CC4)CC3)c(OC)c2)nc1NC1CCOCC1 [GILTERITINIB]					pIC50 [11]: 7.19
Cc1nn2c(-c3ccc(Cl)cc3)ccnc2c1C#N				6.63	
Cc1nn2c(-c3ccc(Cl)cc3)ccnc2c1/C(N)=N/O	6.49	5.97	6.66		
O=c1c(O)c(-c2cc(O)c(O)c(O)c2)oc2cc(O)cc(O)c12 [MYRICETIN]					pIC50 [12]: 5.39
Cc1nn2c(-c3ccc(Br)cc3)ccnc2c1C#N				6.98	
Cn1cc(-c2cnn3c(N)cc([C@@H]4CCCNC4)nc23)cn1	7.47				
Cc1nn2c(-c3ccc(Cl)cc3)ccnc2c1C(N)=O				6.74	
Cc1ccc(-c2ccnc3c(C#N)c(C)nn23)cc1				7.26	
Cc1nn2c(-c3ccc(Br)cc3)ccnc2c1/C(N)=N/O	7.13	6.23	6.91		
Cc1nc(-c2c(C)nn3c(-c4ccccc4)ccnc23)no1	6.92	5.89	6.54		

Source: ChEMBL document CHEMBL5634157, “Design and synthesis of certain 7-Aryl-2-Methyl-3-Substituted Pyrazolo{1,5-a}Pyrimidines as multikinase inhibitors” (Eur J Med Chem, 2023)
